Results reported in patent US20240294489A1 (Captor Therapeutics S.A., priority 2020, published 2024).
Where a name gives a salt, the structure may show the parent alone.

Experiments:
Type in all cases: cell-based
H929 cells = test: Cell viability CTG assay, H929; design: key to Geomean absolute IC50 by molecule, 72 H: Inactive represents IC50 > 50 μM; C represents 50 μM ≥ IC50 > 5 μM; details: H929, 72 h, 0.001-50 μM; for IC50: Homo sapiens, NCI-H929, numeric values, read-out: Geomean absolute IC50 by molecule, 72 H
Protocol: (§1) The effect of various compounds of the invention and various reference compounds on cell viability in various cell lines was investigated, using the Cell Viability—CTG Assay Protocol below. Hep3B, Kelly, H929, KG-1 and SNU-398 cells were maintained in respective cell medium (see Table 8, below). The cells were seeded on the 96-well or 384-white plates, and the compounds to be tested were added at the desired concentration range. Compounds are diluted in DMSO, and the DMSO concentration is kept constant at 0.25% v/v across the assay plate. After 72 h incubation (37° C., 5% CO2), CellTiter-Glo® Reagent (Promega/G7570) was added to the wells. Plates are shaken for 4 minutes and incubated for 8 minutes in the dark prior to reading luminescence (LU) by using the CLARIOstar Multimode Plate Reader. The signal is proportional to the amount of ATP, which is directly proportional to the number of cells present in the culture.
(§2) Luminescence (RLU) values were normalized to DMSO control. Dose response is assessed by non-linear regression and IC50 calculation with the average of technical duplicate of percentage inhibition. IC50 values are reported as absolute IC50 values, being the concentration of test compound at the intersection of the concentration-response curves with T/C=50%. For calculation of mean IC50 values the geometric mean is used.

Ikaros (IKZF1) = biological target: T1, Ikaros (IKZF1) (Homo sapiens, UniProt Q13422+Q96SW2); test: Ikaros degradation assay, H929 cell line; details: H929 cells, 24 h; for % of IKZF1 protein reduction: numeric values; for inhibition at 10 µM / inhibition at 20 µM: NCI-H929, read-out: % of IKZF1 protein reduction
T1 construct: Ikaros degradation in the H929 cell line was investigated; endogenous in cells; host or cells: H929
Protocol: Cells were seeded on 6- or 12-well plates, and the compounds to be tested were added at the desired concentration range. […] After 24 h incubation (37° C., 5% CO2), cells were harvested, washed and cell lysates were prepared using RIPA lysis buffer. The amount of protein was determined via BCA assay, and the appropriate quantity was then loaded on the precast gel for the protein separation. After primary and secondary Ab staining, the membranes were washed and signals developed. The densitometry analysis was implemented to obtain the numeric values used later in the protein level evaluation process.

GSPT1 = biological target: T2, GSPT1 (Homo sapiens, UniProt P15170+Q96SW2); test: GSPT1 degradation assay, Hep3B cell line; details: HEP3B cells, 24 h, read-out: % of GSPT1 protein reduction
T2 construct: GSPT1 degradation in the Hep3B cell line was investigated; endogenous in cells; host or cells: Hep3B
Protocol: Hep3B cells were maintained in EMEM medium, supplemented with penicillin/streptomycin and 10% Fetal Bovine Serum (FBS). Cells were seeded on 6- or 12-well plates, and the compounds to be tested were added at the desired concentration range. Final DMSO concentration was 0.25%. After 24 h incubation (37° C., 5% CO2), cells were harvested, washed and cell lysates were prepared using RIPA lysis buffer. The amount of protein was determined via BCA assay, and the appropriate quantity was then loaded on the precast gel for the protein separation. After primary and secondary Ab staining, the membranes were washed and signals developed. The densitometry analysis was implemented to obtain the numeric values used later in the protein level evaluation process. Densitometry values were normalized to the loading control and calculated as [%] of the DMSO control.

Hep3B cells = test: Cell viability CTG assay, Hep3B; details: Homo sapiens, 72 h, 0.001-50 μM, read-out: Hep3B Geomean absolute IC50 by molecule, 72 H
Protocol: as §1, §2

Kelly cells = test: Cell viability CTG assay, Kelly; details: 72 h, 0.001-50 μM, read-out: Kelly Geomean absolute IC50 by molecule, 72 H
Protocol: as §1, §2

KG-1 cells = test: Cell viability CTG assay, KG-1; details: Homo sapiens; KG-1, 72 h, 0.001-50 μM; read-out: KG-1 Geomean absolute IC50 by molecule, 72 H
Protocol: as §1, §2

T1 sequence (Q13422 whole entry): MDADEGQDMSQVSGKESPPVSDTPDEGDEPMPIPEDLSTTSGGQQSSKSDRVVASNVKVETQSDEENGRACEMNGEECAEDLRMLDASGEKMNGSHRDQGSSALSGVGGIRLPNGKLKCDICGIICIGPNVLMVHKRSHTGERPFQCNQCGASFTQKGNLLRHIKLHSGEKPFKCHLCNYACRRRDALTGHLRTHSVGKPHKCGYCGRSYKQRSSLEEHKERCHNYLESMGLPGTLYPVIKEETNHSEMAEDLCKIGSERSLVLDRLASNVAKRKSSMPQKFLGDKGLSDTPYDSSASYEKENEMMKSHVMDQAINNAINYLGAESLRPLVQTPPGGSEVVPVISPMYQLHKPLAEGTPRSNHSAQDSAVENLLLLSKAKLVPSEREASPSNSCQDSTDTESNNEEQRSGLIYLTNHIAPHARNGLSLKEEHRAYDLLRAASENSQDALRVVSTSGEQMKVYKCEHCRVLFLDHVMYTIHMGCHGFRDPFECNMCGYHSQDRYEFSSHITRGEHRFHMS
T1 sequence (Q96SW2 whole entry): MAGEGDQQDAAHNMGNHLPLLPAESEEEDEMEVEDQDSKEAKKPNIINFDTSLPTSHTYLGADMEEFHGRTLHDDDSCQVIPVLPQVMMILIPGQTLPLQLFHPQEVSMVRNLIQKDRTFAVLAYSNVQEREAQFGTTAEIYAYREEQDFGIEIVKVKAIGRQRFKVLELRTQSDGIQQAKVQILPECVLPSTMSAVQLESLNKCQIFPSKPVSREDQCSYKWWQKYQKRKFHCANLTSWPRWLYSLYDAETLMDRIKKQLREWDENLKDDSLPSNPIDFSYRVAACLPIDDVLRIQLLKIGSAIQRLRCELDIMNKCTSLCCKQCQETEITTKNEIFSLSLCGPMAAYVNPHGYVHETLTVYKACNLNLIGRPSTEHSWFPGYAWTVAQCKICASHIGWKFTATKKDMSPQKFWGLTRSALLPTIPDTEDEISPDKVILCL
T1 sequence (Q16531 whole entry partner): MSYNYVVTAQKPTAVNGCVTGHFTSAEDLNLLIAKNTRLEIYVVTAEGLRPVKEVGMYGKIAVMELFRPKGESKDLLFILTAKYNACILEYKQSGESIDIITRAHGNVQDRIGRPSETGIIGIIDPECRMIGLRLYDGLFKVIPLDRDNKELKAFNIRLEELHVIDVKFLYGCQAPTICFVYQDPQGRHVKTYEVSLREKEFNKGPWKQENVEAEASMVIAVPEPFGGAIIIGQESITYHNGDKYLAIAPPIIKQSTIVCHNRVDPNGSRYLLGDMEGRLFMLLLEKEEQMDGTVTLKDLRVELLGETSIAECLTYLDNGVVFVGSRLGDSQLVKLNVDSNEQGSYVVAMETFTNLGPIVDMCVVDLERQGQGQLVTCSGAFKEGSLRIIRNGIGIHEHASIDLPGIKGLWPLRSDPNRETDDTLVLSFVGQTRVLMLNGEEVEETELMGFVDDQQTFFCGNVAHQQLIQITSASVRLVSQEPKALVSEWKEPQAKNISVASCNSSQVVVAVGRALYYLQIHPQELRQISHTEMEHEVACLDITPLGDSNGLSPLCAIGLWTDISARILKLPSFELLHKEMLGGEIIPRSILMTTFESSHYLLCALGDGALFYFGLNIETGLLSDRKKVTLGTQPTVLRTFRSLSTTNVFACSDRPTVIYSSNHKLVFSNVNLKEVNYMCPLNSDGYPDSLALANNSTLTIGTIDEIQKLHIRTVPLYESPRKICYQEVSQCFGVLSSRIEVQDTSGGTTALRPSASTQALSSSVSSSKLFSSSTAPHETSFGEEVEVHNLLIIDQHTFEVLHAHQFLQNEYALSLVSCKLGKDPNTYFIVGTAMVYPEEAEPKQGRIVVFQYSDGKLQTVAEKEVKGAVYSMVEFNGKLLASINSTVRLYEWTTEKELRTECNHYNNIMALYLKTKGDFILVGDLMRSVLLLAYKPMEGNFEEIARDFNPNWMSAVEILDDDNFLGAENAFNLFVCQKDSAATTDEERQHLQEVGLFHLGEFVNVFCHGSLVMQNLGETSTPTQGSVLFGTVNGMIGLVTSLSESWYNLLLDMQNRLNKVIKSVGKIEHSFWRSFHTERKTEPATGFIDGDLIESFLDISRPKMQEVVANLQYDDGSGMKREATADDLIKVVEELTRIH
T2 sequence (P15170 whole entry): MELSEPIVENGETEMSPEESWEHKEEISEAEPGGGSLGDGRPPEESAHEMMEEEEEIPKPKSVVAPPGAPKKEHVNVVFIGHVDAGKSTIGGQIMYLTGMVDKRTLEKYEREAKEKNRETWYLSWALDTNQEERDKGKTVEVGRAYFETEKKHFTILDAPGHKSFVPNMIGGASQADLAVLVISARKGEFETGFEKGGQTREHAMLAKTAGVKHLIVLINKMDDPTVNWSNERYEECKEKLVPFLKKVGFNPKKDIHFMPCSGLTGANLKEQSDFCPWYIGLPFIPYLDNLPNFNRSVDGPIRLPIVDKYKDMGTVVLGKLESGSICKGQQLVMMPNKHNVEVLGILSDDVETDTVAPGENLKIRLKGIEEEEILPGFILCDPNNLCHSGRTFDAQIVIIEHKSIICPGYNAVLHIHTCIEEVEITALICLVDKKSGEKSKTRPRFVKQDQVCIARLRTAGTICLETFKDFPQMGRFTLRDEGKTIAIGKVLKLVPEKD
T2 sequence (Q96SW2 whole entry): as the sequence (Q96SW2 whole entry) above
T2 sequence (Q16531 whole entry partner): as the sequence (Q16531 whole entry partner) above

For Cc1nc2cccc(N)c2c(=O)n1C1CCC(=O)NC1=O (stereo not drawn) [CC-122, reference compound], the IC50 (H929 cells) was 72 nM.

In the case of O=C1CC[C@@H](N2Cc3c(OCc4ccc(CN5CCOCC5)cc4)cccc3C2=O)C(=O)N1 [CC-220, reference compound], the IC50 (H929 cells) is reported as 4 nM.

In the case of Cc1ccc(NC(=O)NCc2ccc3c(c2)CN(C2CCC(=O)NC2=O)C3=O)cc1Cl (stereo not drawn) [CC-885, reference compound], the “% of IKZF1 protein reduction” value (Ikaros (IKZF1); 10 uM) is reported as greater than 99% and the “% of IKZF1 protein reduction” value (Ikaros (IKZF1); 20 uM) is reported as greater than 99%.

Molecule Cc1cc2c(cc1CN)CN(C1CCC(=O)NC1=O)C2=O (stereo not drawn) [Compound 4, 3-[5-(aminomethyl)-6-methyl-1-oxo-2,3-dihydro-1H-isoindol-2-yl]piperidine-2,6-dione] has an inhibition at 10 µM (Ikaros (IKZF1); 10 uM) of 0 to 24%.

For NCc1ccc2c(c1F)CN(C1CCC(=O)NC1=O)C2=O (stereo not drawn) [Compound 5, 3-[5-(aminomethyl)-4-fluoro-1-oxo-2,3-dihydro-1H-isoindol-2-yl]piperidine-2,6-dione], the inhibition at 10 µM (GSPT1) was 80 to 100%, the inhibition at 10 µM (Ikaros (IKZF1); 10 uM) was 0 to 24% and the “Geomean absolute IC50 by molecule, 72 H” value (H929 cells) was “Inactive”. For the same molecule, the IC50 (Hep3B cells) was 100 to 1000 nM.

In the case of Cc1c(CN)ccc2c1CN(C1CCC(=O)NC1=O)C2=O (stereo not drawn) [Compound 6, 3-[5-(aminomethyl)-4-methyl-1-oxo-2,3-dihydro-1H-isoindol-2-yl]piperidine-2,6-dione], the “Geomean absolute IC50 by molecule, 72 H” value (H929 cells) is reported as “Inactive” and the IC50 (Hep3B cells) is reported as no more than 100 nM.

For NCc1cc(F)c2c(c1)CN(C1CCC(=O)NC1=O)C2=O (stereo not drawn) [Compound 7, 3-[5-(aminomethyl)-7-fluoro-1-oxo-2,3-dihydro-1H-isoindol-2-yl]piperidine-2,6-dione], the inhibition at 10 µM (GSPT1) was 50 to 79% and the inhibition at 10 µM (Ikaros (IKZF1); 10 uM) was 0 to 24%.

With C[C@H](N)c1ccc2c(c1)CN(C1CCC(=O)NC1=O)C2=O (stereo partly drawn) [Compound 8, 3-{5-[(1S)-1-aminoethyl]-1-oxo-2,3-dihydro-1H-isoindol-2-yl}piperidine-2,6-dione] the inhibition at 20 µM (Ikaros (IKZF1); 20 uM) was 0 to 24%.

With C[C@H](NC(=O)OC(C)(C)C)c1ccc2c(c1)CN(C1CCC(=O)NC1=O)C2=O (stereo partly drawn) [Compound 9, tert-butyl N-[(1S)-1-[2-(2,6-dioxopiperidin-3-yl)-1-oxo-2,3-dihydro-1H-isoindol-5-yl]ethyl]carbamate] the inhibition at 20 µM (Ikaros (IKZF1); 20 uM) was 0 to 24%.

C[C@@H](N)c1ccc2c(c1)CN(C1CCC(=O)NC1=O)C2=O (stereo partly drawn) [Compound 10, 3-{5-[(1R)-1-aminoethyl]-1-oxo-2,3-dihydro-1H-isoindol-2-yl}piperidine-2,6-dione] was tested, and the inhibition at 10 µM (Ikaros (IKZF1); 10 uM) was 0 to 24%.

With C[C@@H](NC(=O)OC(C)(C)C)c1ccc2c(c1)CN(C1CCC(=O)NC1=O)C2=O (stereo partly drawn) [Compound 11, tert-butyl N-[(1R)-1-[2-(2,6-dioxopiperidin-3-yl)-1-oxo-2,3-dihydro-1H-isoindol-5-yl]ethyl]carbamate] the inhibition at 20 µM (Ikaros (IKZF1); 20 uM) was 0 to 24%.

CN(C)Cc1ccc2c(c1)CN(C1CCC(=O)NC1=O)C2=O (stereo not drawn) [Compound 16, 3-(5-((dimethylamino)methyl)-1-oxoisoindolin-2-yl)piperidine-2,6-dione] gave an inhibition at 10 µM (Ikaros (IKZF1); 10 uM) of 0 to 24%.

O=C1CCC(N2Cc3cc(CO)ccc3C2=O)C(=O)N1 (stereo not drawn) [Compound 17, 3-(5-(hydroxymethyl)-1-oxoisoindolin-2-yl)piperidine-2,6-dione] gave an inhibition at 10 µM (Ikaros (IKZF1); 10 uM) of 0 to 24%.

For CC(=O)OCc1ccccc1C(=O)NCc1ccc2c(c1)CN(C1CCC(=O)NC1=O)C2=O (stereo not drawn) [Compound 19, [2-({[2-(2,6-dioxopiperidin-3-yl)-1-oxo-2,3-dihydro-1H-isoindol-5-yl]methyl}carbamoyl)phenyl]methyl acetate], the inhibition at 10 µM (GSPT1) was 50 to 79%.

Work on O=C1CCC(N2Cc3cc(CNC(=O)c4ccccc4CO)ccc3C2=O)C(=O)N1 (stereo not drawn) [Compound 20, N-{[2-(2,6-dioxopiperidin-3-yl)-1-oxo-2,3-dihydro-1H-isoindol-5-yl]methyl}-2-(hydroxymethyl)benzamide] yielded an inhibition at 10 µM (GSPT1) of 50 to 79%.

For CC(C)(C)OC(=O)NCC(=O)NCc1ccc2c(c1)CN(C1CCC(=O)NC1=O)C2=O (stereo not drawn) [Compound 26, tert-butyl (2-(((2-(2,6-dioxopiperidin-3-yl)-1-oxoisoindolin-5-yl)methyl)amino)-2-oxoethyl)carbamate], the inhibition at 20 µM (Ikaros (IKZF1); 20 uM) was 0 to 24%, the “Geomean absolute IC50 by molecule, 72 H” value (H929 cells) was “Inactive” and the IC50 (Hep3B cells) was no more than 100 nM.

CC(C)(C)OC(=O)N[C@@H](Cc1cnc[nH]1)C(=O)NCc1ccc2c(c1)CN([C@H]1CCC(=O)NC1=O)C2=O [Compound 30, tert-butyl ((S)-1-(((2-((S)-2,6-dioxopiperidin-3-yl)-1-oxoisoindolin-5-yl)methyl)amino)-3-(1H-imidazol-4-yl)-1-oxopropan-2-yl)carbamate] showed an inhibition at 20 µM (Ikaros (IKZF1); 20 uM) of 0 to 24%.

With CC(C)C(N)C(=O)NCc1ccc2c(c1)CN(C1CCC(=O)NC1=O)C2=O (stereo not drawn) [Compound 32, 2-amino-N-((2-(2,6-dioxopiperidin-3-yl)-1-oxoisoindolin-5-yl)methyl)-3-methylbutanamide] the inhibition at 20 µM (Ikaros (IKZF1); 20 uM) was 0 to 24%.

In the case of CC(C)(C)OC(=O)NC(C)(C)C(=O)NCc1ccc2c(c1)CN(C1CCC(=O)NC1=O)C2=O (stereo not drawn) [Compound 33, tert-butyl (1-(((2-(2,6-dioxopiperidin-3-yl)-1-oxoisoindolin-5-yl)methyl)amino)-2-methyl-1-oxopropan-2-yl)carbamate], the inhibition at 20 µM (Ikaros (IKZF1); 20 uM) is reported as 0 to 24%.

For CC(C)(N)C(=O)NCc1ccc2c(c1)CN(C1CCC(=O)NC1=O)C2=O (stereo not drawn) [Compound 34, 2-amino-N-((2-(2,6-dioxopiperidin-3-yl)-1-oxoisoindolin-5-yl)methyl)-2-methylpropanamide], the inhibition at 20 µM (Ikaros (IKZF1); 20 uM) was 0 to 24%.

O=C(CCc1c[nH]c2ccccc12)NCc1ccc2c(c1)CN(C1CCC(=O)NC1=O)C2=O (stereo not drawn) [Compound 36] gave an IC50 (Kelly cells) of no more than 100 nM, an IC50 (KG-1 cells) of no more than 100 nM and an IC50 (Hep3B cells) of no more than 100 nM.

In the case of N=C(N)NCCCC(N)C(=O)NCc1ccc2c(c1)CN(C1CCC(=O)NC1=O)C2=O (stereo not drawn) [Compound 38, 2-amino-N-((2-(2,6-dioxopiperidin-3-yl)-1-oxoisoindolin-5-yl)methyl)-5-guanidinopentanamide], the “Geomean absolute IC50 by molecule, 72 H” value (H929 cells) is reported as “Inactive” and the IC50 (Hep3B cells) is reported as 100 to 1000 nM.

With O=C(CCc1ccc(Cl)cc1)NCc1ccc2c(c1)CN(C1CCC(=O)NC1=O)C2=O (stereo not drawn) [Compound 42] the IC50 (Kelly cells) was no more than 100 nM, the IC50 (KG-1 cells) was no more than 100 nM and the IC50 (Hep3B cells) was no more than 100 nM.

O=C1CCC(N2Cc3cc(CNC(=O)[C@@H]4CCCN4)ccc3C2=O)C(=O)N1 (stereo partly drawn) [Compound 43, (2S)—N-((2-(2,6-dioxopiperidin-3-yl)-1-oxoisoindolin-5-yl)methyl)pyrrolidine-2-carboxamide hydrochloride] was tested, and the inhibition at 20 µM (Ikaros (IKZF1); 20 uM) was 0 to 24%, the “Geomean absolute IC50 by molecule, 72 H” value (H929 cells) was “Inactive” and the IC50 (KG-1 cells) was 1000 to 5000 nM. The IC50 (Hep3B cells) was 100 to 1000 nM.

For CC1c2cc(CN)ccc2C(=O)N1C1CCC(=O)NC1=O (stereo not drawn) [Compound 52, 3-[5-(aminomethyl)-3-methyl-1-oxo-2,3-dihydro-1H-isoindol-2-yl]piperidine-2,6-dione], the inhibition at 10 µM (GSPT1) was 80 to 100%, the inhibition at 10 µM (Ikaros (IKZF1); 10 uM) was 0 to 24% and the “Geomean absolute IC50 by molecule, 72 H” value (H929 cells) was “Inactive”. The IC50 (Hep3B cells) was no more than 100 nM.

O=C1CCC(N2Cc3cc(C(=O)O)ccc3C2=O)C(=O)N1 (stereo not drawn) [Compound 53] gave an inhibition at 1 µM (GSPT1; 1 uM) of 50 to 79% and an inhibition at 10 µM (GSPT1) of 80 to 100%.

Molecule O=C1CCC(N2Cc3cc(C(=O)O)c(F)cc3C2=O)C(=O)N1 (stereo not drawn) [Compound 54, 2-(2,6-dioxopiperidin-3-yl)-6-fluoro-1-oxo-2,3-dihydro-1H-isoindole-5-carboxylic acid] has an inhibition at 10 µM (GSPT1) of 80 to 100% and an inhibition at 10 µM (Ikaros (IKZF1); 10 uM) of 0 to 24%.
